How the values were obtained:
TAS2R43 = biological target: T1, TAS2R43 (Homo sapiens, UniProt P59537); assay: Calcium mobilization assay, HEK293T-Gα16gust44 cells expressing TAS2R43; conditions: for Response of TAS2R43: maximal concentration tested: sucralose 100 mM, neotame 30 µM, Ace-K 300 mM, RebA 4 mM, RebM 4 mM, mogroside V 5 mM, erythritol 200 mM, D-allulose 500 mM, thaumatin 100 mM
T1 sequence (P59537 1-309): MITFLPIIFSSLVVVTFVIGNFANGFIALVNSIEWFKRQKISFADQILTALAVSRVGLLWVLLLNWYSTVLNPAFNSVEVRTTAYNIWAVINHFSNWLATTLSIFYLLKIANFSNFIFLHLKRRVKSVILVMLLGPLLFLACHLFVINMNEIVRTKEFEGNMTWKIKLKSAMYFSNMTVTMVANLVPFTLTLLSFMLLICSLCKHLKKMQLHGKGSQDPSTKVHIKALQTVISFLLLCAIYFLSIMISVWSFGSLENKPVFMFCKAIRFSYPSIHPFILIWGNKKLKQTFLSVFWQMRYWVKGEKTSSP
Method: (§1) Different concentration ranges were tested depending on the injected sweet compound. […] All of the concentration-receptor combinations were measured in triplicate, and each experiment was repeated at least 3 times. The Ca^2+ change was expressed as a fractional change in fluorescent light intensity: ΔF/F = (F − F0)/F0, where F was the fluorescent light intensity at each point, and F0 was the value of fluorescent light emitted prior to stimulus application. To calculate dose–response relationships, the changes in fluorescence upon stimulus application were averaged, mock-subtracted and baseline-corrected. The resulting obtained dose–response data were adjusted by using a 4-parameter logistic equation.

TAS2R38 = biological target: T2, TAS2R38 (Homo sapiens, UniProt P59533); assay: Calcium mobilization assay, HEK293T-Gα16gust44 cells expressing TAS2R38; conditions: maximal concentration tested: sucralose 100 mM, neotame 30 µM, Ace-K 300 mM, RebA 4 mM, RebM 4 mM, mogroside V 5 mM, erythritol 200 mM, D-allulose 500 mM, thaumatin 100 mM
T2 sequence (P59533 1-333): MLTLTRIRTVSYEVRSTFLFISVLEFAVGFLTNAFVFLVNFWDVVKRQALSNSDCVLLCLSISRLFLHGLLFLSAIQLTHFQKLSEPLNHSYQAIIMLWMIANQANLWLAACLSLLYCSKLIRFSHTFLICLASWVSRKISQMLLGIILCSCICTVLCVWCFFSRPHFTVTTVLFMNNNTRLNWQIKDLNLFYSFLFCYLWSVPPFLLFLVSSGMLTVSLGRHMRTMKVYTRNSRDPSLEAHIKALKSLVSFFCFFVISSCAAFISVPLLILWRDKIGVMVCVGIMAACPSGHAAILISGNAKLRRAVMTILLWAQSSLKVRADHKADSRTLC
Method: as §1

TAS2R13 = biological target: T3, TAS2R13 (Homo sapiens, UniProt Q9NYV9); assay: Calcium mobilization assay, HEK293T-Gα16gust44 cells expressing TAS2R13; conditions: maximal concentration tested: sucralose 100 mM, neotame 30 µM, Ace-K 300 mM, RebA 4 mM, RebM 4 mM, mogroside V 5 mM, erythritol 200 mM, D-allulose 500 mM, thaumatin 100 mM
T3 sequence (Q9NYV9 1-303): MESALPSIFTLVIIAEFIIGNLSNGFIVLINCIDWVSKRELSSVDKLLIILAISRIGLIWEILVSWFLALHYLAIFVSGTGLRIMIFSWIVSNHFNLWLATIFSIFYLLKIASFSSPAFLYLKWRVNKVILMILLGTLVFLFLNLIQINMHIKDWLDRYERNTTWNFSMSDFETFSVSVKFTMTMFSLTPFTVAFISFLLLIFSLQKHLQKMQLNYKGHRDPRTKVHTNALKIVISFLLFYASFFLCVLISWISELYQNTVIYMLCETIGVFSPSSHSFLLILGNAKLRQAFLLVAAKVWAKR
Method: as §1

TAS2R60 = biological target: T4, TAS2R60 (Homo sapiens, UniProt P59551); assay: Calcium mobilization assay, HEK293T-Gα16gust44 cells expressing TAS2R60; conditions: maximal concentration tested: sucralose 100 mM, neotame 30 µM, Ace-K 300 mM, RebA 4 mM, RebM 4 mM, mogroside V 5 mM, erythritol 200 mM, D-allulose 500 mM, thaumatin 100 mM
T4 sequence (P59551 1-318): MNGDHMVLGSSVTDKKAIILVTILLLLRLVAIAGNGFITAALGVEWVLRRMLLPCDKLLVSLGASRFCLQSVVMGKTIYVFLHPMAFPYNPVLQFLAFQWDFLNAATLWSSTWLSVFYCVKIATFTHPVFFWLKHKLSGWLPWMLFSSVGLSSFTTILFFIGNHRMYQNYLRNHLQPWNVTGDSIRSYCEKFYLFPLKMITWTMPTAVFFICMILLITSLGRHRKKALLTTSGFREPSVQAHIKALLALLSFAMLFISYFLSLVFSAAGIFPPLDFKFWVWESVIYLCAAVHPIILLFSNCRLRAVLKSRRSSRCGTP
Method: (§2) Different concentration ranges were tested depending on the injected sweet compound. […] All of the concentration-receptor combinations were measured in triplicate, and each experiment was repeated at least 3 times. The Ca^2+ change was expressed as a fractional change in fluorescent light intensity: ΔF/F = (F − F0)/F0, where F was the fluorescent light intensity at each point, and F0 was the value of fluorescent light emitted prior to stimulus application. To calculate dose–response relationships, the changes in fluorescence upon stimulus application were averaged, mock-subtracted and baseline-corrected. The resulting obtained dose–response data were adjusted by using a 4-parameter logistic equation. The half-maximal effective concentration (EC50) was calculated by using SigmaPlot software (Systat Software, San Jose, CA, USA) as described in supplemental Supplementary Figs. S1, S2, and S3.

TAS2R50 = biological target: T5, TAS2R50 (Homo sapiens, UniProt P59544); assay: Calcium mobilization assay, HEK293T-Gα16gust44 cells expressing TAS2R50; conditions: maximal concentration tested: sucralose 100 mM, neotame 30 µM, Ace-K 300 mM, RebA 4 mM, RebM 4 mM, mogroside V 5 mM, erythritol 200 mM, D-allulose 500 mM, thaumatin 100 mM
T5 sequence (P59544 1-299): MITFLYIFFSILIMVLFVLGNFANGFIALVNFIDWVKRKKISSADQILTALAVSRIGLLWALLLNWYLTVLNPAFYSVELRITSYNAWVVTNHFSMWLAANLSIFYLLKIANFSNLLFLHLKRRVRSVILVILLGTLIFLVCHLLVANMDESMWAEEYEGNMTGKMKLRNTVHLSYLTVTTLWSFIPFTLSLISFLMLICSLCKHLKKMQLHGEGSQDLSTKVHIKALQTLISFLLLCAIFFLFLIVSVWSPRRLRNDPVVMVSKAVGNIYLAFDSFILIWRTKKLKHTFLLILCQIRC
Method: as §2

TAS2R39 = biological target: T6, TAS2R39 (Homo sapiens, UniProt P59534); assay: Calcium mobilization assay, HEK293T-Gα16gust44 cells expressing TAS2R39; conditions: maximal concentration tested: sucralose 100 mM, neotame 30 µM, Ace-K 300 mM, RebA 4 mM, RebM 4 mM, mogroside V 5 mM, erythritol 200 mM, D-allulose 500 mM, thaumatin 100 mM
T6 sequence (P59534 1-338): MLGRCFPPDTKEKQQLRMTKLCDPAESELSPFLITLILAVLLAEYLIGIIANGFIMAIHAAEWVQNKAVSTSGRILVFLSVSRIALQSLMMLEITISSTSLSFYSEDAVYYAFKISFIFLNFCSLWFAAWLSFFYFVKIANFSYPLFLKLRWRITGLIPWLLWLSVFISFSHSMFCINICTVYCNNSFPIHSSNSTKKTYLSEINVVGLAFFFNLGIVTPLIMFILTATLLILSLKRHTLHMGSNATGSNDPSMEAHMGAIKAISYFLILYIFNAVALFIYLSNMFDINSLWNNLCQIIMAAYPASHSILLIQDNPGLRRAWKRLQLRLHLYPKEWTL
Method: as §1

TAS2R7 = biological target: T7, TAS2R7 (Homo sapiens, UniProt Q9NYW3); assay: Calcium mobilization assay, HEK293T-Gα16gust44 cells expressing TAS2R7; conditions: maximal concentration tested: sucralose 100 mM, neotame 30 µM, Ace-K 300 mM, RebA 4 mM, RebM 4 mM, mogroside V 5 mM, erythritol 200 mM, D-allulose 500 mM, thaumatin 100 mM
T7 sequence (Q9NYW3 1-318): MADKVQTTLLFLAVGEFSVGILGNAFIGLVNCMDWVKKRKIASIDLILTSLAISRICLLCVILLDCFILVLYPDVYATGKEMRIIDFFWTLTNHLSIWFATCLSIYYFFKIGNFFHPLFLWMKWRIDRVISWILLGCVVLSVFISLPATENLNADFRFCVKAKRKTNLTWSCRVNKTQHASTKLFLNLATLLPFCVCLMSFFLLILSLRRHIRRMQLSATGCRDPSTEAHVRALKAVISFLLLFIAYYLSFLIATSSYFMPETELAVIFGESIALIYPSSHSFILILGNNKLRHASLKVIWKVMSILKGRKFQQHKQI
Method: as §2

Compound | Response of TAS2R43 (TAS2R43) | Response of TAS2R38 (TAS2R38) | Response of TAS2R13 (TAS2R13) | Response of TAS2R60 (TAS2R60) | Response of TAS2R50 (TAS2R50) | Response of TAS2R39 (TAS2R39) | Response of TAS2R7 (TAS2R7) | concentrations at which TAS2R43 was activated (TAS2R43)
O=C(CO)[C@H](O)[C@H](O)[C@H](O)CO [D-allulose] | + | + | − | − | − | − | − | > 300 mM
C[C@H](CC[C@@H](O[C@@H]1O[C@H](CO[C@@H]2O[C@H](CO)[C@@H](O)[C@H](O)[C@H]2O)[C@@H](O)[C@H](O)[C@H]1O[C@@H]1O[C@H](CO)[C@@H](O)[C@H](O)[C@H]1O)C(C)(C)O)[C@H]1CC[C@@]2(C)[C@@H]3CC=C4[C@@H](CC[C@H](O[C@@H]5O[C@H](CO[C@@H]6O[C@H](CO)[C@@H](O)[C@H](O)[C@H]6O)[C@@H](O)[C@H](O)[C@H]5O)C4(C)C)[C@]3(C)[C@H](O)C[C@]12C [Mogroside V, mogroside V] | − | + | − | − | − | − | − | 
OC[C@@H](O)[C@@H](O)CO [Erythritol, erythritol] | − | − | − | − | − | − | − | 
CC1=CC(=O)NS(=O)(=O)O1 [Ace-K, acesulfame-K] | §^b | − | − | − | − | − | − | 

Further lines, with some results ahead:

Response of TAS2R43 (TAS2R43) | Response of TAS2R38 (TAS2R38) | Response of TAS2R13 (TAS2R13) | Response of TAS2R60 (TAS2R60) | Response of TAS2R50 (TAS2R50) | Response of TAS2R39 (TAS2R39) | Response of TAS2R7 (TAS2R7) | Compound | concentrations at which TAS2R43 was activated (TAS2R43)
− | − | − | − | − | − | − | C=C1C[C@@]23CC[C@H]4[C@@](C)(CCC[C@@]4(C)C(=O)O[C@@H]4O[C@H](CO)[C@@H](O)[C@H](O[C@@H]5O[C@H](CO)[C@@H](O)[C@H](O)[C@H]5O)[C@H]4O[C@@H]4O[C@H](CO)[C@@H](O)[C@H](O)[C@H]4O)[C@@H]2CC[C@]1(O[C@@H]1O[C@H](CO)[C@@H](O)[C@H](O[C@@H]2O[C@H](CO)[C@@H](O)[C@H](O)[C@H]2O)[C@H]1O[C@@H]1O[C@H](CO)[C@@H](O)[C@H](O)[C@H]1O)C3 [RebM, Rebaudioside M] | 
− | − | − | − | − | − | − | COC(=O)[C@H](Cc1ccccc1)NC(=O)[C@H](CC(=O)O)NCCC(C)(C)C [Neotame] | 
− | − | − | − | − | − | − | thaumatin | 
− | − | − | − | − | − | − | OC[C@H]1O[C@H](O[C@]2(CCl)O[C@H](CCl)[C@@H](O)[C@@H]2O)[C@H](O)[C@@H](O)[C@H]1Cl [Sucralose, sucralose] | 
